The source of these data is US20260115280A1, “VACCINES” (ADJUVANCE TECHNOLOGIES, INC., priority 2021, published 2026).

The structures appear in SMILES notation.

For series [1], the system named is gE. The experiment in a line: Anti-gE ELISA, D28 IgG2a subclass endpoint titers (Example 5). The format is in vivo, Varicella zoster virus. The settings on record: CD-1 mice; with 5 mcg gE + 40 mcg TQL-1055; EcML statement at the low TLR4a dose. The text has this:
(§1) The tolerability and immunogenicity of formulations containing (TQL-1055 free acid HP-β-CD (2-hydroxypropyl beta-cyclodextrin) and TLR4 agonist candidates were studied. CD-1 mice were immunized as shown in the table below. PHAD liposomes were obtained from Avanti. EcML was obtained from EuBiologics. CRX-527 was obtained from InvivoGen. TLR4a-1 is an undisclosed TLR4 compound. AS01 is a combination of 5 mcg QS-21 and 5 mcg MPL used in SHINGRIX.
(§2) Mice were immunized via I.M. on Day 0 and Day 14. Groups were bled at Day-1, Day 13 (post Dose 1), and Day 28 (post Dose 2) for serum analysis for anti-gE specific antibody response and anti-gE specific T cell response. Weight measurements were also obtained on Days 0, 1, 2, 14, 15, 16, and 17.
Similar responses were observed from all 4 TLR4 agonists with CRX-527 having the lowest IgG2a titers. There was a more pronounced dose effect of TLR4a on IgG2a than total IgG. PHAD had the largest difference between low and high dose at 8 times higher. At the low TLR4a dose, EcML had the highest IgG2a.
(In general: In an ELISA, binding on a coated surface is turned into a signal by an enzyme label.)

In series [2] the test system is CD4+ T cells. The experiment in a line: D26 CD4 T-cell ICS (Example 5). The format is in vivo. The settings on record: CD-1 mice, high dose PHAD, high dose CRX-527, low dose TLR4a-1 (each with gE + 40 mcg TQL-1055).
Excerpt: as §1
(§3) Mice were immunized via I.M. on Day 0 and Day 14. […] Weight measurements were also obtained on Days 0, 1, 2, 14, 15, 16, and 17.
The increases were driven largely by higher single cytokine positive T cells for IFN-γ or IL-2.

Series [3] has as its system gE. The experiment in a line: Anti-gE ELISA, D28 total IgG endpoint titers (Example 5). The format is in vivo, Varicella zoster virus. The following applies: CD-1 mice; high vs low TLR4 agonist dose with 5 mcg gE + 40 mcg TQL-1055 FA HPβCD.
Excerpt: as §1, §2

Series [4] concerns CD4+ T cells. The series can be described thus: D42 CD4 T-cell ICS (Example 5). The format is in vivo. The following applies: CD-1 mice; AS01; both PHAD doses, high dose TLR4a-1, high dose CRX-527 (each with gE + 40 mcg TQL-1055).
Excerpt: as §1, §2
Overall, levels of activation much lower than D26 T cell data.

Series [5] relates to CD8 T cells. The experiment in a line: D26 CD8 T-cell ICS (Example 5). The format is in vivo. The settings on record: CD-1 mice; high dose PHAD, both doses CRX-527, high dose TLR4a-1 (each with gE + 40 mcg TQL-1055); AS01.
Excerpt: as §1, §3

In series [6] the test system is CD4+ T cells. The series can be described thus: T-cell intracellular cytokine staining (ICS) assay, CD4+ T-cell (Example 4). The format is in vivo. The settings on record: mice. The method, then: (§4) The impact of TQL-1055 choline salt (in situ salt) at various dosages, a TLR9 or TLR4 agonist, and VZV gE (expressed by CHO cells), as compared to AS-01B (5 mcg MPL+5 mcg QS-21) was tested. In Experiment #1, mice were immunized with PBS alone, gE (5 mcg)+TLR9 ligand (50 mcg)+TQL-1055 (four groups: 5 mcg, 15 mcg, 25 mcg, 50 mcg), and AS-01B. In Experiment #2, mice were immunized with PBS alone, gE (5 mcg)+TLR4 ligand (5 mcg)+TQL-1055 (four groups: 5 mcg, 15 mcg, 25 mcg, 50 mcg), and AS-01B.
(§5) Mice were immunized at Day 0 and Day 21. Groups were bled at Day 31 […] for serum analysis.
FIG. 22 is a graph depicting the results of a T-cell intracellular cytokine staining (ICS) assay (CD4+ T-cell) showing the percentage of CD4+ T cells expressing one or more cytokines in response to stimulation with VZV gE for Experiment 1. FIG. 23 is a graph depicting the results of T-cell intracellular cytokine staining (ICS) assays (CD4+ T-cell) showing the percentage of CD4+ T cells expressing one or more cytokines in response to stimulation with VZV gE for Experiment 2.

Series [7] deals with VZV gE. The experiment in a line: ELISA antibody titers (Example 4). The following applies: mice. The format is in vivo, Varicella zoster virus. The method, then: as §4, §5
FIG. 26 is a graph depicting the results of an enzyme-linked immunosorbent assay (ELISA) showing antibody titers for […]. FIG. 27 is a graph depicting the results of an enzyme-linked immunosorbent assay (ELISA) showing antibody titers for Experiment 1.

Series [8] relates to spleen lymphocytes. The series can be described thus: FluoroSpot (T-cell) assay, spot forming cells per million spleen lymphocytes (Example 4). The format is in vivo. The settings on record: mice. The method, then: as §4, §5
FIG. 24 is a graph depicting the results of a FluroSpot (T-cell) assay showing spot forming cells per million spleen lymphocytes for Experiment 1. FIG. 25 is a graph depicting the results of a FluroSpot (T-cell) assay showing spot forming cells per million spleen lymphocytes for Experiment 2.

A short description of series [9]: Weight loss: mean percent initial weight change after immunization (Example 6). The format is in vivo, C57BL/6J mice. The settings on record: mice; TQL 1055 alone with gE. The protocol: as §1
The study was conducted in two parts with staggered start dates. Part A involved testing TQL1055 in combination with PHAD and EcML. Part B involved testing TQL1055 in combination with CRX-527 and TR4a-1.
Mice were immunized via I.M. on Day 0 and Day 14. Groups were bled at Day-1, Day 13 (post Dose 1), and Day 28 (post Dose 2) for serum analysis for anti-gE specific antibody response. Weight measurements were also obtained on Days 0, 1, 2, 14, 15, 16, and 17.
Post dose 1 mean percent (%) initial weight change for each group is depicted in FIGS. 40-45. Post dose 1 weight loss heatmaps are depicted in FIG. 46. Post dose 2 mean percent (%) initial weight change for each group is depicted in FIGS. 47-51. […] Weight loss appeared to be driven mostly by TLR4 dose.

Setting [10] is: gE 5 mcg + TLR9 ligand 50 mcg or TLR4 ligand 5 mcg + TQL-1055 5, 15, 25, 50 mcg.
The mark [11] stands for this setting: TQL-1055 5 mcg combined with TLR4 ligand vs AS-01B.

For `CCCCCCCCCCC[C@H](CC(=O)N[C@H]1[C@H](OC[C@H](NC(=O)C[C@@H](CCCCCCCCCCC)OC(=O)CCCCCCCCC)C(=O)O)O[C@H](CO)[C@@H](OP(=O)(O)O)[C@@H]1OC(=O)C[C@@H](CCCCCCCCCCC)OC(=O)CCCCCCCCC)OC(=O)CCCCCCCCC` [CRX-527], the “rank of IgG2a titers among the 4 TLR4 agonists” value in [1] is reported as “lowest”. Also, the “D26 total cytokine+ CD4+ T cells compared to unadjuvanted” value in [2] (AS01) was “significantly increased”. For the same molecule, the “D26 total polyfunctional CD4+ T cells compared to unadjuvanted control” value in series [2] is reported as “significantly higher”. For the same molecule, in series [3], the “effect of increasing the TLR4 agonist dose on D28 total IgG endpoint titers” value is “no effect”. Further, the “D42 total cytokine+ CD4+ T cells compared to unadjuvanted” value in [4] is “significantly increased”. In series [5], the “D26 activated CD8 T cells compared to unadjuvanted control group” value is listed as “significantly higher”.
As to `CC1O[C@@H](OC2C(O)[C@@H](NC(=O)CCCCCCCCCCC(=O)O)C(CO)O[C@H]2OC(=O)[C@]23CCC(C)(C)CC2C2=CCC4C5(C)CC[C@H](O)C(C)(C=O)C5CCC4(C)C2(C)CC3O)C(O)C(O)[C@H]1O[C@@H]1OC[C@@H](O)C(O)C1O` (stereo partly shown) [TQL-1055], in [6] (TQL-1055 5 mcg combined with TLR4 ligand vs AS-01B (5 mcg MPL + 5 mcg QS-21)), the “T-cell response by ICS compared to AS-01B” value was “without any significant difference”. Also, the “T-cell response by ICS (CD4+ T cells expressing one or more cytokines on stimulation with VZV gE): dose dependence” value in series [6] (setting [10]) is “dose-dependent”. Also, the “antibody response by ELISA compared to AS-01B” value in [7] (setting [11]) is listed as “without any significant difference”. Also, the “antibody response by ELISA: dose dependence” value in series [7] (setting [10]) was “dose-dependent”. The “T-cell response by FluoroSpot compared to AS-01B” value in series [8] (setting [11]) was “without any significant difference”. In addition, the “T-cell response by FluoroSpot: dose dependence” value in series [8] (setting [10]) is listed as “dose-dependent”. Also, the “weight loss compared to unadjuvanted” value in [9] is “no significant weight loss”.
